Measured values as given in ChEMBL document CHEMBL1130609, “2-Pyridinyl-3-(4-methylsulfonyl)phenylpyridines: selective and orally active cyclooxygenase-2 inhibitors” (Bioorg Med Chem Lett, 1998).

What was measured:
[1] = molecular target: Prostaglandin G/H synthase 1 (Homo sapiens, UniProt P23219); assay: Inhibition of Prostaglandin G/H synthase 1 was measured by the inhibition of PGE-2 produced by microsomes from U937 cells at subsaturating arachidonic acid conc.; format: cell-based, U-937
[2] = molecular target: T1, Prostaglandin G/H synthase 2 (Homo sapiens, UniProt P35354)
T1 sequence (P35354 whole entry): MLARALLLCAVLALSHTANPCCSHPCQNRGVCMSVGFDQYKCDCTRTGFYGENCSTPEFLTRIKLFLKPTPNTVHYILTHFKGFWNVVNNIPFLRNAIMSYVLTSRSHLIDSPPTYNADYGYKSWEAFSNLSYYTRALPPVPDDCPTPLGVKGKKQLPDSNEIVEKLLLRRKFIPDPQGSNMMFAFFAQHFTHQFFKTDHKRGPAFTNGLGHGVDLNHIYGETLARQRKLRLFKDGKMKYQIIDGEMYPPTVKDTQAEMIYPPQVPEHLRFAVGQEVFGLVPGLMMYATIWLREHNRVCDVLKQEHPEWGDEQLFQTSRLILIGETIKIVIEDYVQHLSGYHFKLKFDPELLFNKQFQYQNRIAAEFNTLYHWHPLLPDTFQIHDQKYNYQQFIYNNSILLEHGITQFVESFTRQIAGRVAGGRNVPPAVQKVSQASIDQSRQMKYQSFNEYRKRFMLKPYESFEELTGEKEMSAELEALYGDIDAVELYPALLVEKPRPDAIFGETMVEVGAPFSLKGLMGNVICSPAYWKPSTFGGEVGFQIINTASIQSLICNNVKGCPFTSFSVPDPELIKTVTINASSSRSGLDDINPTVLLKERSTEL
Description: Inhibition of Prostaglandin G/H synthase 2 was measured by the inhibition of PGE-2 produced by lipopolysaccharide-challenged HWB

[3] = molecular target: T1, Prostaglandin G/H synthase 2; assay: In vitro inhibition of PGE-2 produced by arachidonic acid-stimulated CHO cells stably expressing human Prostaglandin G/H synthase 2
[4] = system: Rattus norvegicus; assay: Efficacy in rat paw edema assay upon oral administration.; format: functional
[5] = Compound was evaluated for plasma concentration in rats when administered at 20 mg/kg in methocel at 2 hr; format: ADME, organism-based; parameters: dose 20 mg/kg; settings: rat, read-out: Cmax
[6] = system: Rattus norvegicus; assay: Efficacy in rat pyresis assay upon oral administration; format: functional
[7] = system: Rattus norvegicus; assay: In vivo potency at 10 mg/kg in the rat paw edema assay; format: functional
[8] = system: Rattus norvegicus; assay: In vivo potency at 20 mg/kg in the rat paw edema assay; format: functional
[9] = system: Rattus norvegicus; assay: Compound was evaluated for efficacy in rat paw edema assay upon oral administration; format: functional
[10] = system: Rattus norvegicus; assay: In vivo inhibitory dose in carrageenan-induced hyperalgesia in rats; format: functional; settings: read-out: ID50 (the source's name)
[11] = system: Rattus norvegicus; assay: In vivo inhibitory dose in adjuvant-induced arthritis in rats; format: functional
[12] = Compound was evaluated for plasma concentration in rats when administered at 20 mg/kg in methocel at 0.5 hr; format: ADME, organism-based; parameters: dose 20 mg/kg; settings: rat, read-out: Cmax
[13] = Compound was evaluated for plasma concentration in rats when administered at 20 mg/kg in methocel at 1 hr; format: ADME, organism-based; parameters: dose 20 mg/kg; settings: rat, read-out: Cmax

Prostaglandin G/H synthase 1, sequence (P23219 whole entry): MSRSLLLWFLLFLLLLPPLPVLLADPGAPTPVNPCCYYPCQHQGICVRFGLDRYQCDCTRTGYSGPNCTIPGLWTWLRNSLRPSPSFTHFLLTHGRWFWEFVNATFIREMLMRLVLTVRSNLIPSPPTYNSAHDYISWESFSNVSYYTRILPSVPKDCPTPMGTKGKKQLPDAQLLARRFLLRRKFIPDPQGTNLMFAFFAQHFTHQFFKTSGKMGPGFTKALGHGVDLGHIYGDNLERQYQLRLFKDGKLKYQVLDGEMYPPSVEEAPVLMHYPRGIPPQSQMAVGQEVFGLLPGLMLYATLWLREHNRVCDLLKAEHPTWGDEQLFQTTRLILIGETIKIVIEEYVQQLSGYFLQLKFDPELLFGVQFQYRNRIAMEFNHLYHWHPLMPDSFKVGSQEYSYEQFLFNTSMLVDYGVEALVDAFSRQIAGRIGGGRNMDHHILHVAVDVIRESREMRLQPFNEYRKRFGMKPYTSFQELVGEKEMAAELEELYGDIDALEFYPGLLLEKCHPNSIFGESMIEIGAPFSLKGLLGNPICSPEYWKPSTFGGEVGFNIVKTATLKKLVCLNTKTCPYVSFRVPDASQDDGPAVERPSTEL

| IC50 [1] [nM] | IC50 [2] [nM] | IC50 [3] [nM] | Compound | ED50 [4] [mg/kg] | ED50 [6] [mg/kg] | other results |
| --- | --- | --- | --- | --- | --- | --- |
| > 100000 | > 33000 | 610 | CS(=O)(=O)c1ccc(-c2cccnc2-c2cccnc2)cc1 |  |  |  |
| > 100000 | 2700 | 830 | Cc1ccncc1-c1ncc(Cl)cc1-c1ccc(S(C)(=O)=O)cc1 |  |  |  |
| 19000 | 900 | 34 | CS(=O)(=O)c1ccc(-c2cc(Cl)cnc2-c2cccnc2)cc1 | 2.3 | 0.8 | concentration at 2 h [5]: 52 µM |
|  |  |  | CS(=O)(=O)c1ccc(-c2cc(Br)sc2-c2ccc(F)cc2)cc1 [DUP-697] | 1.3 |  |  |
| 45000 | 2600 | 1330 | Cc1ncccc1-c1ncc(Cl)cc1-c1ccc(S(C)(=O)=O)cc1 |  |  |  |
| 6000 |  | 16 | CS(=O)(=O)c1ccc(-c2cc(Cl)cnc2-c2ccc(C3CC3)nc2)cc1 | 2 | 4.9 | concentration at 2 h [5]: 9 µM |
|  |  |  | COc1nc(-c2ccc(F)cc2)c(-c2ccc(S(C)(=O)=O)cc2)cc1C#N |  |  | inhibition in vivo at 10 mg/kg [7]: 16% |
| > 100000 | 3800 | 87 | Cc1cncc(-c2ncc(Cl)cc2-c2ccc(S(C)(=O)=O)cc2)c1 |  |  |  |
|  |  |  | COc1cc(-c2ccc(S(C)(=O)=O)cc2)c(-c2ccc(F)cc2)c(C(F)(F)F)n1 |  |  | inhibition in vivo at 20 mg/kg [8]: 12% |
|  |  |  | COc1ccc2c(c1)c(CC(=O)O)c(C)n2C(=O)c1ccc(Cl)cc1 [INDOMETHACIN] |  | 1.1 | ED50 [9]: 2 mg/kg; ED50 [10]: 1.5 mg/kg; ID50 [11]: 0.2 mg kg-1 day-1 b.i.d. |
| 20000 |  |  | CS(=O)(=O)c1ccc(-c2cccnc2-c2ccccc2)cc1 | > 10 |  | concentration at 0.5 h [12]: 40 µM |
| 59000 | 2100 | 350 | Cc1cnc(-c2cccnc2)c(-c2ccc(S(C)(=O)=O)cc2)c1 |  |  |  |
| 13000 |  |  | CCc1ccc(-c2ncc(Cl)cc2-c2ccc(S(C)(=O)=O)cc2)cn1 | 1.6 | 2.6 | concentration at 0.5 h [12]: 9 µM |
| 81000 |  |  | CS(=O)(=O)c1ccc(-c2cc(Cl)cnc2-c2ccncc2)cc1 |  |  |  |
| 31000 |  |  | CS(=O)(=O)c1ccc(-c2cc(C(F)(F)F)cnc2-c2cccnc2)cc1 | 1.7 | 1.4 | concentration at 2 h [5]: 24 µM |
| 12000 |  |  | Cc1ccc(-c2ncc(Cl)cc2-c2ccc(S(C)(=O)=O)cc2)cn1 [ETORICOXIB] | 0.6 | 0.5 | concentration at 1 h [13]: 30 µM |

| Compound | IC50 [1] [nM] | IC50 [2] [nM] | IC50 [3] [nM] | ED50 [4] [mg/kg] | ED50 [6] [mg/kg] | other results |
| --- | --- | --- | --- | --- | --- | --- |
| Cc1ccc(-c2ncc(Cl)cc2-c2ccc(S(N)(=O)=O)cc2)cn1 | 800 | 2400 | 23 |  |  |  |
| CS(=O)(=O)c1ccc(-c2cc(Cl)cnc2-c2ccccn2)cc1 | 63000 | 5800 | 68 |  |  |  |
